Experimental data taken from the NIST ThermoML archive (doi:10.1021/acs.jced.9b00313).

Legend:
[1] = xn = mol fraction of the nth substance listed; conditions: 86.5 kPa, Liquid; for viscosity: Capillary tube (Ostwald / Ubbelohde) method; for speed of sound: Frequency=3 MHz, Single path-length method; for mass density: Vibrating tube method
[2] = refractive index (Na D-line) (dimensionless); xn = mol fraction of the nth substance listed; conditions: 86.5 kPa, Liquid, Standard Abbe refractometry

OCCNCCO [diethanolamine] + C[N+](C)(C)CCO.[Cl-]
Conditions	mass density, [1] [kg/m3]	refractive index, [2]	speed of sound, [1] [m/s]	viscosity, [1] [mPa·s]
288.15 K, x2 = 0.125	1102.46	1.4892	1826.4	506.3
288.15 K, x2 = 0.167	1104.58	1.492	1839	528.22
293.15 K, x2 = 0.125	1099.49	1.4871	1812.5	498.57
293.15 K, x2 = 0.167	1101.42	1.4902	1825.7	520.58
298.15 K, x2 = 0.125	1096.43	1.485	1798.8	491.94
298.15 K, x2 = 0.167	1098.48	1.4877	1811.7	513.69
303.15 K, x2 = 0.125	1092.86	1.4831	1784	486.41
303.15 K, x2 = 0.167	1095.52	1.4861	1799.1	507.54

C[N+](C)(C)CCO.[Cl-] [choline chloride] + NCCO
Conditions	mass density, [1] [kg/m3]	refractive index, [2]	speed of sound, [1] [m/s]	viscosity, [1] [mPa·s]
288.15 K, x1 = 0.125	1090.06	1.4905	1989.5	50.12
288.15 K, x1 = 0.167	1091.28	1.4934	2006.1	59.66
293.15 K, x1 = 0.125	1086.89	1.4884	1977.8	42.39
293.15 K, x1 = 0.167	1088.11	1.4913	1994.5	52.01
298.15 K, x1 = 0.125	1083.96	1.4862	1965.3	35.76
298.15 K, x1 = 0.167	1085.18	1.4891	1982	37.69
303.15 K, x1 = 0.125	1081	1.4844	1953	30.23
303.15 K, x1 = 0.167	1082.22	1.4873	1970.7	38.98

OCCN(CCO)CCO [triethanolamine] + C[N+](C)(C)CCO.[Cl-]
Conditions	mass density, [1] [kg/m3]	refractive index, [2]	speed of sound, [1] [m/s]	viscosity, [1] [mPa·s]
288.15 K, x2 = 0.125	1124.87	1.49	1715.5	522.91
288.15 K, x2 = 0.167	1125.76	1.4926	1734.7	552.67
293.15 K, x2 = 0.125	1122.22	1.4877	1703.1	515.18
293.15 K, x2 = 0.167	1122.89	1.4905	1723.7	545.03
298.15 K, x2 = 0.125	1119.73	1.4856	1691.2	508.55
298.15 K, x2 = 0.167	1120.12	1.4883	1712.2	538.14
303.15 K, x2 = 0.125	1116.88	1.4835	1678.5	503.02
303.15 K, x2 = 0.167	1117.58	1.4865	1700.5	531.99

OCCOCCOCCO [triethylene glycol] + C[N+](C)(C)CCO.[Cl-]
Conditions	mass density, [1] [kg/m3]	refractive index, [2]	speed of sound, [1] [m/s]	viscosity, [1] [mPa·s]
288.15 K, x2 = 0.125	1118.76	1.492	1641.2	144.03
288.15 K, x2 = 0.167	1120.95	1.498	1660.5	160.22
293.15 K, x2 = 0.125	1116.27	1.4912	1629.7	136.3
293.15 K, x2 = 0.167	1118.12	1.4971	1648.4	152.58
298.15 K, x2 = 0.125	1113.74	1.4887	1617.8	129.67
298.15 K, x2 = 0.167	1115.27	1.4947	1636.8	145.69
303.15 K, x2 = 0.125	1111.2	1.4872	1605.8	124.14
303.15 K, x2 = 0.167	1112.38	1.4928	1624.9	139.54

C[N+](C)(C)CCO.[Cl-] [choline chloride] + OCCOCCO
Conditions	mass density, [1] [kg/m3]	refractive index, [2]	speed of sound, [1] [m/s]	viscosity, [1] [mPa·s]
288.15 K, x1 = 0.125	1115.24	1.4797	1752.1	110.12
288.15 K, x1 = 0.167	1117.43	1.4857	1764.7	125.8
293.15 K, x1 = 0.125	1113.38	1.4776	1740.1	102.39
293.15 K, x1 = 0.167	1114.61	1.4836	1752.3	118.16
298.15 K, x1 = 0.125	1110.59	1.4754	1728.4	95.76
298.15 K, x1 = 0.167	1111.75	1.4814	1740.3	111.27
303.15 K, x1 = 0.125	1107.68	1.4735	1716.3	90.23
303.15 K, x1 = 0.167	1108.86	1.4795	1728.4	105.11

C[N+](C)(C)CCO.[Cl-] [choline chloride] + OCCO
Conditions	mass density, [1] [kg/m3]	refractive index, [2]	speed of sound, [1] [m/s]	viscosity, [1] [mPa·s]
288.15 K, x1 = 0.125	1113.73	1.467	1919.5	32.07
288.15 K, x1 = 0.167	1115.91	1.4732	1931.8	43.39
293.15 K, x1 = 0.125	1111.87	1.4649	1907.5	24.34
293.15 K, x1 = 0.167	1113.09	1.4711	1920.1	35.75
298.15 K, x1 = 0.125	1109.07	1.4628	1895.2	17.71
298.15 K, x1 = 0.167	1110.23	1.4687	1908.6	28.86
303.15 K, x1 = 0.125	1106.16	1.461	1883.5	12.19
303.15 K, x1 = 0.167	1107.34	1.4668	1897.1	22.72
